How the values were obtained:
POAAN [1] = experiment: Herbicidal post-emergence action (Table B7); format: in vivo, Poa annua
Outline: (§1)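 Each pot held sandy loam sown with a single mono- or dicot weed species, grown under controlled greenhouse conditions. Test plants were sprayed at the one-leaf stage, and after about 3 weeks of further growth the percentage activity relative to untreated plants was rated visually.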

GLXMA [2] = experiment: Post-emergence effects on crop plants (Table F4); format: in vivo, Glycine max; conditions: crop plant GLXMA
Source text: (§2) 2 to 3 weeks after sowing, the test plants were sprayed in the single-leaf stage.

DIGSA [3] = experiment: Herbicidal pre-emergence action (Table A12); format: in vivo, Digitaria sanguinalis; conditions: application rate 320 g/ha; visual grading after ca. 3 weeks
Outline: (§3)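 One monocotyledonous and one dicotyledonous weed species shared each pot. Seeds were sown in sandy loam and covered over with soil.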

LOLRI [4] = experiment: Herbicidal pre-emergence action (Table A3); format: in vivo, Lolium rigidum; conditions: application rate 1280 g/ha; visual grading after ca. 3 weeks
Outline: as §3

GLXMA [5] = experiment: Pre-emergence effects on crop plants (Table D4); format: in vivo, Glycine max; conditions: crop plant; application rate 320 g/ha; visual grading after ca. 3 weeks
BRSNW [6] = experiment: Pre-emergence effects on crop plants (Table D5); format: in vivo, Brassica napus; conditions: crop plant, visual grading after ca. 3 weeks
POAAN [7] = experiment: Herbicidal pre-emergence action (Table A7); format: in vivo, Poa annua; conditions: application rate 320 g/ha; visual grading after ca. 3 weeks
Outline: as §3

ALOMY [8] = experiment: Herbicidal pre-emergence action, section C (Table C2); format: in vivo, Alopecurus myosuroides; conditions: visual grading after ca. 3 weeks
ORYZA [9] = experiment: Pre-emergence effects on crop plants (Table D3); conditions: crop plant, visual grading after ca. 3 weeks
STEME = experiment: Herbicidal pre-emergence action (Table A6); format: in vivo, Stellaria media; conditions: application rate 320 g/ha; visual grading after ca. 3 weeks
Outline: as §3

LOLRI [10] = experiment: Herbicidal post-emergence action (Table B5); format: in vivo, Lolium rigidum; conditions: application rate 1280 g/ha; rated visually after about 3 weeks
Procedure: Seeds of mono- and dicotyledonous weed plants were placed in plastic pots in sandy loam soil (doubly sown with in each case one species of mono- or dicotyledonous weed plants per pot), covered with soil and cultivated in a greenhouse under controlled growth conditions. 2 to 3 weeks after sowing, the test plants were treated at the one-leaf stage. […] After the test plants had been kept in the greenhouse under optimum growth conditions for about 3 weeks, the activity of the preparations was rated visually in comparison to untreated controls. For example, 100% activity = the plants have died, 0% activity = like control plants.

MATIN [11] = experiment: Herbicidal pre-emergence action (Table A4); format: in vivo, Matricaria inodora; conditions: application rate 1280 g/ha; visual grading after ca. 3 weeks
Outline: as §3

VIOTR [12] = experiment: Herbicidal post-emergence action, section E (Table E10); format: in vivo, Viola tricolor; conditions: application rate 320 g/ha; assessed visually after ca. 3 weeks
Source text: as §2

SETVI [13] = experiment: Herbicidal pre-emergence action, section C (Table C10); format: in vivo, Setaria viridis; conditions: application rate 320 g/ha; visual grading after ca. 3 weeks
ZEAMX [14] = experiment: Pre-emergence effects on crop plants (Table D1); format: in vivo, Zea mays; conditions: crop plant, visual grading after ca. 3 weeks
ORYZA [15] = experiment: Post-emergence effects on crop plants (Table F3); format: in vivo, Oryza sativa; conditions: application rate 320 g/ha, crop plant ORYZA
Source text: as §2

DIGSA [16] = experiment: Herbicidal pre-emergence action, section C (Table C5); format: in vivo, Digitaria sanguinalis; conditions: application rate 80 g/ha; visual grading after ca. 3 weeks
ALOMY [17] = experiment: Herbicidal pre-emergence action (Table A9); format: in vivo, Alopecurus myosuroides; conditions: application rate 1280 g/ha; visual grading after ca. 3 weeks
Outline: as §3

VIOTR [18] = experiment: Herbicidal pre-emergence action, section C (Table C12); format: in vivo, Viola tricolor; conditions: visual grading after ca. 3 weeks
SETVI [19] = experiment: Herbicidal pre-emergence action (Table A5); format: in vivo, Setaria viridis; conditions: visual grading after ca. 3 weeks
Outline: as §3

VERPE [20] = experiment: Herbicidal post-emergence action, section E (Table E9); format: in vivo, Veronica persica; conditions: application rate 320 g/ha; assessed visually after ca. 3 weeks
Source text: as §2

LOLRI [21] = experiment: Herbicidal pre-emergence action, section C (Table C7); format: in vivo, Lolium rigidum; conditions: application rate 320 g/ha; visual grading after ca. 3 weeks
VERPE [22] = experiment: Herbicidal pre-emergence action, section C (Table C11); format: in vivo, Veronica persica; conditions: application rate 320 g/ha; visual grading after ca. 3 weeks
ECHCG [23] = experiment: Herbicidal pre-emergence action, section C (Table C6); format: in vivo, Echinochloa crus-galli; conditions: application rate 80 g/ha; visual grading after ca. 3 weeks
MATIN [24] = experiment: Herbicidal post-emergence action (Table B6); format: in vivo, Matricaria inodora; conditions: application rate 1280 g/ha; rated visually after about 3 weeks
Outline: as §1

ZEAMX [25] = experiment: Post-emergence effects on crop plants (Table F1); format: in vivo, Zea mays; conditions: application rate 320 g/ha, crop plant ZEAMX
Source text: as §2

TRZAS [26] = experiment: Post-emergence effects on crop plants (Table F2); format: in vivo, Triticum aestivum; conditions: crop plant TRZAS
Source text: as §2

ECHCG [27] = experiment: Herbicidal post-emergence action (Table B3); format: in vivo, Echinochloa crus-galli; conditions: application rate 1280 g/ha; rated visually after about 3 weeks
Outline: as §1

TRZAS [28] = experiment: Pre-emergence effects on crop plants (Table D2); format: in vivo, Triticum aestivum; conditions: crop plant; application rate 80 g/ha; visual grading after ca. 3 weeks
BRSNW [29] = experiment: Post-emergence effects on crop plants (Table F5); format: in vivo, Brassica napus; conditions: application rate 320 g/ha, crop plant BRSNW
Source text: as §2

ECHCG [30] = experiment: Herbicidal pre-emergence action (Table A2); format: in vivo, Echinochloa crus-galli; conditions: application rate 320 g/ha; visual grading after ca. 3 weeks
Outline: as §3

ABUTH = experiment: Herbicidal pre-emergence action (Table A1); format: in vivo, Abutilon theophrasti; conditions: application rate 1280 g/ha; visual grading after ca. 3 weeks vs untreated controls (100% = plants have died off, 0% = as control plants)
Outline: as §3

ALOMY [31] = experiment: Herbicidal post-emergence action, section E (Table E2); format: in vivo, Alopecurus myosuroides; conditions: application rate 320 g/ha; assessed visually after ca. 3 weeks
Source text: as §2

## O=C1N(Cc2ccccc2Cl)CCC12CCCN(Cc1c(F)cccc1F)C2=O (racemic) [I-045]
POAAN [1]; application rate 1280 g/ha
  post-emergence activity against POAAN: 90%
GLXMA [2]; application rate 320 g/ha
  post-emergence activity against GLXMA: 0%
DIGSA [3]
  pre-emergence activity against DIGSA: 90%
LOLRI [4]
  pre-emergence activity against LOLRI: 100%
GLXMA [5]
  pre-emergence activity against GLXMA: 0%
BRSNW [6]; application rate 80 g/ha
  pre-emergence activity against BRSNW: 0%
POAAN [7]
  pre-emergence activity against POAAN: 100%
ALOMY [8]; application rate 320 g/ha
  pre-emergence activity against ALOMY: 100%
ORYZA [9]; application rate 80 g/ha
  pre-emergence activity against ORYZA: 0%
STEME
  pre-emergence activity against STEME: 90%
LOLRI [10]
  post-emergence activity against LOLRI: 90%
MATIN [11]
  pre-emergence activity against MATIN: 90%
VIOTR [12]
  post-emergence activity against VIOTR: 80%
SETVI [13]
  pre-emergence activity against SETVI: 100%
ZEAMX [14]; application rate 320 g/ha
  pre-emergence activity against ZEAMX: 0%
ORYZA [15]
  post-emergence activity against ORYZA: 0%
DIGSA [16]
  pre-emergence activity against DIGSA: 80%
ALOMY [17]
  pre-emergence activity against ALOMY: 90%
VIOTR [18]; application rate 80 g/ha
  pre-emergence activity against VIOTR: 90%
SETVI [19]; application rate 1280 g/ha
  pre-emergence activity against SETVI: 100%
VERPE [20]
  post-emergence activity against VERPE: 80%
LOLRI [21]
  pre-emergence activity against LOLRI: 90%
VERPE [22]
  pre-emergence activity against VERPE: 80%
ECHCG [23]
  pre-emergence activity against ECHCG: 90%
MATIN [24]
  post-emergence activity against MATIN: 90%
ZEAMX [25]
  post-emergence activity against ZEAMX: 0%
TRZAS [26]; application rate 320 g/ha
  post-emergence activity against TRZAS: 0%
ECHCG [27]
  post-emergence activity against ECHCG: 90%

## O=C1N(Cc2cccc(F)c2F)CCCC12CCCN(Cc1cccc(F)c1F)C2=O (racemic) [I-012]
TRZAS [28]
  pre-emergence activity against TRZAS: 20%
POAAN [1]; application rate 320 g/ha
  post-emergence activity against POAAN: 100%
GLXMA [2]; application rate 80 g/ha
  post-emergence activity against GLXMA: 0%
LOLRI [4]
  pre-emergence activity against LOLRI: 100%
BRSNW [6]; application rate 320 g/ha
  pre-emergence activity against BRSNW: 0%
POAAN [7]
  pre-emergence activity against POAAN: 100%
ALOMY [8]; application rate 80 g/ha
  pre-emergence activity against ALOMY: 90%
ORYZA [9]; application rate 320 g/ha
  pre-emergence activity against ORYZA: 10%
STEME
  pre-emergence activity against STEME: 90%
BRSNW [29]
  post-emergence activity against BRSNW: 20%
MATIN [11]
  pre-emergence activity against MATIN: 90%
SETVI [13]
  pre-emergence activity against SETVI: 100%
ZEAMX [14]; application rate 80 g/ha
  pre-emergence activity against ZEAMX: 20%
ECHCG [30]
  pre-emergence activity against ECHCG: 100%
ORYZA [15]
  post-emergence activity against ORYZA: 10%
ABUTH
  pre-emergence activity against ABUTH: 90%
VIOTR [18]; application rate 320 g/ha
  pre-emergence activity against VIOTR: 80%
SETVI [19]; application rate 320 g/ha
  pre-emergence activity against SETVI: 100%
LOLRI [21]
  pre-emergence activity against LOLRI: 100%
VERPE [22]
  pre-emergence activity against VERPE: 80%
ALOMY [31]
  post-emergence activity against ALOMY: 80%
ECHCG [23]
  pre-emergence activity against ECHCG: 100%
MATIN [24]
  post-emergence activity against MATIN: 90%
ZEAMX [25]
  post-emergence activity against ZEAMX: 0%
TRZAS [26]; application rate 80 g/ha
  post-emergence activity against TRZAS: 0%

— patent publication EP4273147A1, “SUBSTITUTED SPIROLACTAMS, SALTS THEREOF AND THEIR USE AS HERBICIDALLY ACTIVE SUBSTANCES” (Bayer Aktiengesellschaft, priority 2022, dated 2023)
